One data set concerns the target T1, K18PL tau (Homo sapiens, UniProt P10636, P618L).
T1 construct: (K18PL; amino acids 244-369); made in house
Kind of data set: Heparin-induced K18PL tau fibrillization assay monitored by ThT fluorescence. It is filed as biochemical. As to conditions: for Emax: read-out: K18PL (ThT) maximal percent inhibition achieved in the assay. In outline:
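K18PL (30 μM stock, with 0.24 μM Alexa Red-labeled K18PL) plus 40 μM heparin and compound, fibrillized 6 h at 37 °C. Fibrils read by ThT (12.5 μM final, in 100 mM glycine pH 8.5, 1 h RT), ex 450/em 510 nm. Percent inhibition scaled between DMSO wells and non-fibrillizing K18 KD control wells.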

A short description of data set [1]: Full PK analysis and oral administration, brain and plasma levels. It is filed as in vivo, mice. As to conditions: for half-life: 2 mg/kg, full PK analysis, FIG. 6A. As to the method:
FIG. 6. (A) Brain and plasma level of F4 (CNDR-51362) after i.v. administration at 2 mg/Kg; (B) Brain and plasma level of F4 (CNDR-51362) after oral administration at 5 mg/Kg; (C) Brain and plasma level of F3 (CNDR-51349) after oral administration at 5 mg/Kg
Test compounds underwent preliminary evaluations of brain penetration, in which 5 mg/Kg of each compound was administered intraperitoneally (i.p.) to a group of three normal mice; drug levels in brain and plasma were determined at a single time-point (1 h) by LC-MS/MS using pre-validated calibration curves. […] However, both esters appeared to have relatively short half-lives in plasma, as indicated by the limited amount of parent drug detected after 1 h from administration of the compounds. […] CNDR-51362 was selected for full PK analysis in which brain and plasma drug levels were determined at six time points (i.e., 30 min, 1 h, 2 h, 4 h, 8 h, and 16 h). The results from this experiment, illustrated in FIG. 6A, confirmed that the total B/P exposure ratio over 16 h is 1.6. […] Finally, in order to investigate the potential for ATPZ congeners to be orally administered, we evaluated brain and plasma level of CNDR-51362 and CNDR-51349 after oral administration of 5 mg/Kg.
Brain tissue was homogenized in 10 mM ammonium acetate, pH 5.7 (1:2; w/v) using a handheld sonic homogenizer. Plasma was obtained from blood that was collected into a 1.5 mL tube containing 0.5M EDTA solution and subjected to centrifugation for 10 min. at 4500 g at 4° C. Aliquots (50 μL) of brain homogenate or plasma were mixed with 0.2 mL of acetonitrile, centrifuged at 15,000 g, and the resulting supernatants were used for subsequent LC-MS/MS analysis. The LC-MS/MS system was comprised of an Aquity HPLC and a TQ MS that was controlled using MassLynx software (Waters Corporation, Milford, Mass., USA). Compounds were detected using multiple reaction monitoring (MRM) of their specific collision-induced ion transitions. Samples (5 μL) were separated on an Aquity BEH C18 column (1.7 μm, 2.1×50 mm) at 35° C. Operation was in positive electrospray ionization mode, with mobile phase A of 0.1% (v/v) formic acid, and B of either acetonitrile or methanol with 0.1% (v/v) formic acid at a flow rate of 0.6 mL/min using a gradient from 5% to 95% B over two min., followed by wash and re-equilibration steps. The MS was operated with a desolvation temperature of 450° C. and a source temperature of 150° C. Desolvation and source nitrogen gas flows were 900 L/hr and 50 L/hr, respectively. Source and MS/MS voltages were optimized for each compound using the MassLynx auto tune utility. Standard curves were generated for each compound from brain homogenate and plasma samples that had compound added at 4, 40, 400 and 4000 ng/mL and extracted as above. Peak areas were plotted against concentration and a 1/x weighted linear regression curve was used to quantify the tissue-derived samples using the average peak area from triplicate injections.

A further data set deals with T2, Aβ(1-42) (Homo sapiens, UniProt P05067).
T2 construct: Synthetic Aβ(1-42) peptide (rPeptide); purchased rPeptide
T2 sequence (P05067 672-713 limits assumed): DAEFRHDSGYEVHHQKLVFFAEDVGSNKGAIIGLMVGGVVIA
As to the kind of experiment: Aβ(1-42) fibrillization assay (ThT). The class given is biochemical. The note with it: Table 3; highest tested concentration (80 μM); read-out: Aβ42 ThT Assay % Inhib.

Setting [2] is: Table 5, read-out: K18PL (ThT) IC50 value.

Molecules are shown by their SMILES. Read-outs that look alike come from different tables or passages of the source.

T1 sequence (P10636 561-686 P618L): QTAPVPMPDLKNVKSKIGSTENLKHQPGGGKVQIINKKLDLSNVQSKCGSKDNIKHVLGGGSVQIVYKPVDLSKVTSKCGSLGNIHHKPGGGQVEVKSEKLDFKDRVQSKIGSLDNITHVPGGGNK

Take `Nc1scc2c(C(=O)NC3CC3)nn(-c3ccc(Cl)cc3)c(=O)c12` [CNDR-51362, 5-Amino-3-(4-chlorophenyl)-N-cyclopropyl-4-oxo-3,4-dihydrothieno[3,4-d]pyridazine-1-carboxamide]: the half-maximal inhibitory concentration (IC50) (in general, the point on the concentration scale where inhibition reaches its midpoint) at K18PL tau (setting [2]) came to 4.6 µM. Also, on K18PL tau (Table 5), the Emax turned out to be 87%. For the same molecule, the Kp at 16 h in data set [1] (mouse, brain and plasma, iv, over 16 h, six time points, FIG. 6A (i.v. 2 mg/Kg), read-out: Total brain-to-plasma (B/P) AUC exposure ratio) was determined as 1.6. The half-life – broadly, the time needed for the level to fall by half in the phase considered – in data set [1] (mouse, brain, iv, read-out: Elimination half-life in the brain (converted)) was around 9.5 h; in data set [1] (mouse, plasma, iv, read-out: Elimination half-life in plasma (converted)) it was around 7.4 h. For the same molecule, the bioavailability (usually dose-corrected exposure relative to a reference, in per cent) in data set [1] (mouse, plasma AUC after oral 5 mg/Kg versus i.v. 2 mg/Kg) is around 64%. For the same molecule, the “Brain concentration after oral administration” value in data set [1] (oral 5 mg/Kg, FIGS. 6B and 6C, 5 mg/kg) is “significant brain concentrations”.

Take `CCOC(=O)c1nn(-c2ccc(Cl)cc2)c(=O)c2c(N)scc12` [Compound 17, Ethyl 5-amino-3-(4-chlorophenyl)-4-oxo-3,4-dihydrothieno[3,4-d]pyridazine-1-carboxylate]: the melting point (commonly the temperature, or range, at which the solid turns liquid) was 189 to 191 °C. Also, the inhibition at 80 µM on K18PL tau (Table 3, highest tested concentration (80 μM), read-out: Tau ThT Assay % Inhib.) was 84%. In addition, the IC50 on K18PL tau (Table 3, logarithm of IC50, K18PL tau ThT fluorescence inhibition, NC = not calculated due to insufficient activity, read-out: Tau ThT Assay Log IC50 (converted)) was 3.98 µM. For the same molecule, the IC50 on K18PL tau (setting [2]) was 3.1 µM. Moreover, the Emax on K18PL tau (Table 5) came to 71%. For the same molecule, on Aβ(1-42), the inhibition at 80 µM came out at 41%.

The record behind these values is patent US20130029983A1, “AMINOTHIENOPYRIDAZINE INHIBITORS OF TAU ASSEMBLY” (priority 2009, published 2013).
